Assay results taken from patent US11191773B2, “Methods of treatment for bacterial infections” (President and Fellows of Harvard College, priority 2017, dated 2021).
In brackets after ≈: the same amount, converted by molar mass.

Key:
[1] = molecular target: T1, LptB2LptFG(ch)C complexes (Escherichia coli, UniProt P0A9V1); assay: LPS-release assay, right-side-out vesicles to LptA*; format: biochemical, E. coli; conditions: 30° C. (FIG. 9C)
T1 construct: made in house; host or cells: right-side-out membrane vesicles from E. coli BL-21(λDE3) overexpressing the complex
T1 sequence (P0AF98 whole entry E84A): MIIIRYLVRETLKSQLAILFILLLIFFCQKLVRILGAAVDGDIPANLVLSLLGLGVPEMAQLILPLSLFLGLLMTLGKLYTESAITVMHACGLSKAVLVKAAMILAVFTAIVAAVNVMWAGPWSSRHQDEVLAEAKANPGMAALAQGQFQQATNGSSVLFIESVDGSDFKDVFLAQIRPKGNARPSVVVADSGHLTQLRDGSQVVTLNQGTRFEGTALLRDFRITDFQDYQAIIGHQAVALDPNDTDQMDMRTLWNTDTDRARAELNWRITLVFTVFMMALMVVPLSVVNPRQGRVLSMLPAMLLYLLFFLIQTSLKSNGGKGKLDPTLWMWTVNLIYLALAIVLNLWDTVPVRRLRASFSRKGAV
T1 sequence (P0ADC6 whole entry E88A, further chain): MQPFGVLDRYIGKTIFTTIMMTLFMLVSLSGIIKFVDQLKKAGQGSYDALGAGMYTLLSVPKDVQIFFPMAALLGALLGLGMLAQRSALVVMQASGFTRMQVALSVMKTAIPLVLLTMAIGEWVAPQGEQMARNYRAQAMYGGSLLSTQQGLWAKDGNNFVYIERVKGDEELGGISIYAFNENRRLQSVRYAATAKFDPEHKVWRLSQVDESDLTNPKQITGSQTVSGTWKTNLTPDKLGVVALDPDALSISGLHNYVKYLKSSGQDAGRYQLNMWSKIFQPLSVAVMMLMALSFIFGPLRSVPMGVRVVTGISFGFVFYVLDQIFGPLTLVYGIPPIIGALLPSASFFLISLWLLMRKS
T1 sequence (P0A9V1 2-241): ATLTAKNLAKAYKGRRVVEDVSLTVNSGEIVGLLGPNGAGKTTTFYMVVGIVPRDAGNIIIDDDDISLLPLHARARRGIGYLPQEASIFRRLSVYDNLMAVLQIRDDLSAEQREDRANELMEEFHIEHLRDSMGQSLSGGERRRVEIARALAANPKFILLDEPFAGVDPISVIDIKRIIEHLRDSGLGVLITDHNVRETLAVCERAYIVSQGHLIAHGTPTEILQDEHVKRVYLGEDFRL
T1 sequence (P0ADV9 whole entry, further chain): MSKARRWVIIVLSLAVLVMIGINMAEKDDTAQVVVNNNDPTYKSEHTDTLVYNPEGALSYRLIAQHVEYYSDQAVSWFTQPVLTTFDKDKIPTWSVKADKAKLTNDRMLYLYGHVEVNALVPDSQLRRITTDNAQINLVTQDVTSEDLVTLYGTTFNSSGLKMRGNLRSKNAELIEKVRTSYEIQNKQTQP
Experimental: (§1) FIG. 9A is a schematic drawing showing the assay to monitor LPS release from right-side-out vesicles to LptA* (LptA(I36pBPA)). Vesicles containing overexpressed wild-type or mutant LptB2FGC complexes were incubated with LptA* and ATP at 30° C. to initiate LPS extraction and transport from the vesicles to LptA*. Samples were taken at different time points and UV-irradiated to crosslink LPS to LptA*, and accumulation of LPS-LptA* adducts was detected using LPS immunoblots.
(§2) The assay detects via immunoblot LPS that becomes crosslinked to LptA* in the presence of UV light. […] By comparison, vesicles containing LptB2LptFG(ch)C complexes released less LPS over time (FIG. 9B, lanes 5-8). These experiments provide direct evidence that the amino acid changes in LptFG(ch), which were known to affect complex formation with LptB, impair LPS release. […] These compounds also increase LPS release from vesicles containing wild-type LptB2FGC complexes or LptB(R91 S)2FGC complexes (FIG. 17).
The in vitro LPS-transport experiments in FIGS. 9B, 9C, and 17 were set-up as described in (Okuda et al. Science 2012, 338, 1214-1217) with some modifications. […]
(§3) Immunoblotting was used to assess LptA*-LPS levels in each sample. […] LptA levels were assessed similarly, using rabbit anti-LptA antiserum followed by donkey anti-rabbit horseradish peroxidase conjugate (GE Amersham). […]

[2] = test system: lptB1; assay: Minimum inhibitory concentration assay; format: cell-based, E. coli
Experimental: (§4) We wondered whether it would be possible to separate novobiocin's ability to suppress the IptFG(ch) defects in vivo from its activity against DNA gyrase, its presumed primary target. […] Minimum inhibitory concentrations were measured after a 15-hr incubation period at 37° C.
(§5) Overnight cultures were prepared by transferring 5 mL of sterile LB Miller media to culture tubes and inoculating with the corresponding organism. The tubes were allowed to shake at 220 rpm, 37° C. overnight. 15 μL of overnight culture was diluted in 15 mL of LB Miller in a Falcon tube and was vortexed to mix. In a 96-well plate, 100 μL of diluted culture was added to each well. To column #1, an additional 100 μL of diluted culture and test compound was added (93.7 μL culture+6.35 μL 10 mg/mL novobiocin) or (94.2 μL culture+5.87 μL 10 mg/mL 1-adamantyl-novobiocin) such that the highest concentration tested was 500 μM. Transferred 100 μL from column #1 into column #2, etc, and mixed each time thoroughly. Repeated serial dilution until column #11. Incubated the plate at 37° C. overnight (˜16 h) and read the turbidity (OD600) using a Spectramax 384 plus plate reader (Molecular Devices).

[3] = test system: ΔtolC; assay: Minimum inhibitory concentration assay; format: cell-based, E. coli
Experimental: as §4, §5

[4] = test system: wild type; assay: Minimum inhibitory concentration assay; format: cell-based, E. coli; conditions: Escherichia coli, 15 h, read-out: Minimum inhibitory concentration
Experimental: as §4, §5

[5] = test system: IptFG(ch) mutant; assay: Rescue of growth of coupling helix mutant (plating and disk assays); format: cell-based, E. coli
Experimental: FIG. 8B is a series of pictures of bacterial overnight cultures grown in minimal medium. The cultures were serially diluted ten-fold and spotted onto LB agar plates with and without compounds.
FIG. 15 is a picture of bacterial lawns grown on plates in the presence of disks containing antibiotics. […] Strains were grown overnight in minimal media and then plated on LB plates. Each disk contained 5 μg compound.
The coupling helices in LptFG each contain a strictly-conserved glutamate, and changing both glutamates to alanine (IptFG(ch)) causes a lethal loss of function (FIG. 8B, LB panel). […] Because novobiocin also contacts R91 (FIG. 7C), we speculated that it might rescue growth of IptFG(ch) by masking the charge. […] We conclude that novobiocin suppresses Lpt defects in vivo by interacting with LptB at R91; therefore, novobiocin interacts with LptB in cells in a similar manner to that observed in the crystal structure.
Disk diffusion assays were performed as described in Sherman et al., Proc. Natl. Acad. Sci. USA 2014, 111, 4982-4987. Premade Sensi-Disc (BD-Beckton, Dickinson and Company) were used for bacitracin 10IU, erythromycin 15 μg, novobiocin 30 μg, and rifampin 5 μg.
(§6) Efficiency of plating assays were performed on indicated media using the method described in Butler et al., J. Bacteriol. 2013, 195, 4639-4649.

[6] = test system: wild type and IptB1; assay: Plating assay (FIG. 14); format: cell-based, E. coli
Experimental: as §6

[7] = molecular target: T2, wild-type LptB2FGC complexes (Escherichia coli, UniProt P0A9V1); assay: LPS-release assay, right-side-out vesicles to LptA*; format: biochemical, E. coli; conditions: overexpressed LptB2FGC vesicles, 30° C. for 1 hour (FIG. 9D, 9E)
T2 construct: made in house; host or cells: right-side-out membrane vesicles from E. coli BL-21(λDE3) overexpressing the complex
T2 sequence (P0AF98 whole entry): as the sequence (P0AF98 whole entry E84A) above, with A84E counted along it
T2 sequence (P0ADV9 whole entry, further chain): as the sequence (P0ADV9 whole entry, further chain) above
T2 sequence (P0ADC6 whole entry, further chain): as the sequence (P0ADC6 whole entry E88A, further chain) above, with A88E counted along it
T2 sequence (P0A9V1 2-241): as the sequence (P0A9V1 2-241) above
Experimental: as §1
FIG. 9D is a picture of an immunoblot showing that novobiocin and derivatives with impaired gyrase activities stimulate LPS transport in E. coli in vitro. […] Samples were UV irradiated at 365 nm for 5 minutes and then quenched with 2X SDS/5% β-mercaptoethanol. Samples were immunoblotted.
as §2
Samples were UV irradiated at 365 nm for 5 minutes and then quenched with 2X SDS/5% β-mercaptoethanol. Samples were immunoblotted.
The in vitro LPS-transport experiments in FIGS. 9B, 9C, and 17 were set-up as described in (Okuda et al. Science 2012, 338, 1214-1217) with some modifications. RSO-vesicles (50 μg total protein) were diluted into 100 μL reaction buffer (10% v/v glycerol, 20 mM Tris (pH 8.0), 150 mM NaCl, 5 mM sodium-ATP, 5 mM MgCl2), and incubated on ice with novobiocin, 1-adamantyl-novobiocin, or no compound for 15 minutes (50× compound stocks in water were used for each concentration). […]
as §3

[8] = test system: wild-type E. coli; assay: Checkerboard microdilution assay between PMB and clorobiocin / novobiocin (FIG. 9F); format: cell-based; conditions: 37° C. for 24 h
[9] = Escherichia coli, 15 h, read-out: Minimum inhibitory concentration

SMILES	LPS release from vesicles to LptA* [1]	MIC [2, 9]	less potent in vivo compared to novobiocin ([2]; leaky IptB1 strain)	MIC [3, 9]	less potent in vivo compared to novobiocin ([3]; efflux pump-deficient ΔtoIC strain)	MIC [4]	suppression of lethality of IptFG(ch) ([5]; disks on LB plates, each disk 5 μg compound (FIG. 15))	rescue of growth of IptFG(ch) ([5]; serial dilutions spotted onto LB agar plates with compound (FIG. 8B))	potency compared to novobiocin [6]	LPS transport in vitro [7]	synergy with PMB [8]
COC1C(OC(N)=O)C(O)[C@H](Oc2ccc3c(O)c(NC(=O)C45CC6CC(CC(C6)C4)C5)c(=O)oc3c2C)OC1(C)C (stereo partly drawn) [Novobiocin-adamantyl, (3R,4S,5R,6R)-6-((3-((3R,5S)-adamantane-1-carboxamido)-4-hydroxy-8-methyl-2-oxo-2H-chromen-7-yl)oxy)-5-hydroxy-3-methoxy-2,2-dimethyltetrahydro-2H-pyran-4-yl carbamate]	stimulate LPS release from the LptB2LptFG(ch)C vesicles in a concentration dependent manner	125 µM (≈ 73.3 µg/mL)	~100 ×	125 to 250 µM (≈ 73.3 to 147 µg/mL)	~100 ×	> 500 µM	suppressed the lethality of IptFG(ch)	completely suppressed the lethality of IptFG(ch)	less potent than novobiocin	–	–
CO[C@@H]1[C@@H](OC(=O)c2ccc(C)[nH]2)[C@@H](O)[C@H](Oc2ccc3c(O)c(NC(=O)c4ccc(O)c(CC=C(C)C)c4)c(=O)oc3c2Cl)OC1(C)C [clorobiocin]	–	–	–	–	–	–	–	–	–	highly stimulates LPS transport in vitro	more potent synergy with PMB than novobiocin
